Laboratory results: the NIST ThermoML archive (doi:10.1021/je100089s)

Assay: xn = mol fraction of the nth substance listed
Conditions: Liquid, Vibrating tube method

OCCO [1,2-ethanediol] + C[S+](C)[O-]
mass density [kg/m3]
Conditions	101 kPa	10000 kPa	25000 kPa	50000 kPa	75000 kPa	100000 kPa
278.15 K, x2 = 0	1123.77	1127.65	1133.2	1141.71	1149.55	1157.24
278.15 K, x2 = 0.00452	1123.78	–	–	–	–	–
278.15 K, x2 = 0.00721	1123.81	–	–	–	–	–
278.15 K, x2 = 0.0181	–	1127.79	1133.35	1141.89	1149.87	1157.59
278.15 K, x2 = 0.01811	1123.89	–	–	–	–	–
278.15 K, x2 = 0.03033	1123.98	–	–	–	–	–
278.15 K, x2 = 0.04027	1124.05	–	–	–	–	–
278.15 K, x2 = 0.0403	–	1127.98	1133.57	1142.21	1150.25	1158.01
278.15 K, x2 = 0.07007	1124.18	–	–	–	–	–
278.15 K, x2 = 0.0701	–	1128.13	1133.74	1142.44	1150.68	1158.48
278.15 K, x2 = 0.1097	1124.31	1128.3	1133.94	1142.73	1151.17	1159.03
278.15 K, x2 = 0.1408	1124.41	1128.43	1134.12	1142.98	1151.53	1159.45
278.15 K, x2 = 0.1934	1124.41	1128.44	1134.19	1143.24	1151.93	1159.97
278.15 K, x2 = 0.234	1124.34	1128.39	1134.22	1143.4	1152.14	1160.33
278.15 K, x2 = 0.3244	1124.05	1128.13	1134.17	1143.66	1152.48	1160.9
278.15 K, x2 = 0.3764	1123.76	1127.85	1134.01	1143.73	1152.55	1161.23
278.15 K, x2 = 0.4429	1123.28	1127.37	1133.7	1143.69	1152.53	1161.47
278.15 K, x2 = 0.4892	1122.88	1126.97	1133.44	1143.64	1152.45	1161.74
278.15 K, x2 = 0.5654	1122.14	1126.24	1132.95	1143.45	1152.24	1162
278.15 K, x2 = 0.6298	1121.26	–	–	–	–	–
278.15 K, x2 = 0.6946	1120.52	–	–	–	–	–
288.15 K, x2 = 0	–	1120.87	1126.51	–	–	–
288.15 K, x2 = 0.0181	–	1120.9	1126.66	–	–	–
288.15 K, x2 = 0.0403	–	1121	1126.79	–	–	–
288.15 K, x2 = 0.0701	–	1121.06	1126.89	–	–	–
288.15 K, x2 = 0.1097	–	1121.09	1126.97	–	–	–
288.15 K, x2 = 0.1408	–	1121.09	1127.02	–	–	–
288.15 K, x2 = 0.1934	–	1121	1127.02	–	–	–
288.15 K, x2 = 0.234	–	1120.87	–	–	–	–
288.15 K, x2 = 0.3244	1115.95	1120.42	–	–	–	–
288.15 K, x2 = 0.3764	1115.49	1119.99	–	–	–	–
288.15 K, x2 = 0.4429	1114.8	1119.41	–	–	–	–
288.15 K, x2 = 0.4892	1114.25	1118.92	–	–	–	–
288.15 K, x2 = 0.5654	1113.29	1118.05	–	–	–	–
288.15 K, x2 = 0.6298	1112.27	–	–	–	–	–
288.15 K, x2 = 0.6946	1111.32	1116.19	–	–	–	–
288.15 K, x2 = 0.8142	1109.13	–	–	–	–	–
